{"source": "the NIST ThermoML archive (doi:10.1016/j.jct.2017.06.001)", "assay": "xn = mol fraction of the nth substance listed", "settings": "293.15 K, 100 kPa, Liquid; for speed of sound: Frequency=5 MHz, Pulse-echo method; for mass density: Vibrating tube method", "note": "Numbers after ± are expanded uncertainties.", "data": [{"smiles": "OCCCCCO", "note": "[1,5-pentanediol] + O", "values": [{"measurement": "speed of sound", "setting": "x1 = 0.1548", "value": "1691.8 ± 1.3", "unit": "m/s"}, {"measurement": "speed of sound", "setting": "x1 = 0.1602", "value": "1692.6 ± 1.3", "unit": "m/s"}, {"measurement": "speed of sound", "setting": "x1 = 0.1649", "value": "1693.2 ± 1.3", "unit": "m/s"}, {"measurement": "speed of sound", "setting": "x1 = 0.1671", "value": "1693.5 ± 1.3", "unit": "m/s"}, {"measurement": "speed of sound", "setting": "x1 = 0.1718", "value": "1694 ± 1.3", "unit": "m/s"}, {"measurement": "speed of sound", "setting": "x1 = 0.1738", "value": "1694.1 ± 1.3", "unit": "m/s"}, {"measurement": "speed of sound", "setting": "x1 = 0.1776", "value": "1694.5 ± 1.3", "unit": "m/s"}, {"measurement": "speed of sound", "setting": "x1 = 0.1807", "value": "1694.7 ± 1.3", "unit": "m/s"}, {"measurement": "speed of sound", "setting": "x1 = 0.1846", "value": "1694.9 ± 1.3", "unit": "m/s"}, {"measurement": "speed of sound", "setting": "x1 = 0.1875", "value": "1695.1 ± 1.3", "unit": "m/s"}, {"measurement": "speed of sound", "setting": "x1 = 0.19", "value": "1695.2 ± 1.3", "unit": "m/s"}, {"measurement": "speed of sound", "setting": "x1 = 0.1941", "value": "1695.4 ± 1.3", "unit": "m/s"}, {"measurement": "speed of sound", "setting": "x1 = 0.1964", "value": "1695.5 ± 1.3", "unit": "m/s"}, {"measurement": "speed of sound", "setting": "x1 = 0.2006", "value": "1695.5 ± 1.3", "unit": "m/s"}, {"measurement": "speed of sound", "setting": "x1 = 0.2029", "value": "1695.6 ± 1.3", "unit": "m/s"}, {"measurement": "speed of sound", "setting": "x1 = 0.2051", "value": "1695.6 ± 1.3", "unit": "m/s"}, {"measurement": "speed of sound", "setting": "x1 = 0.2087", "value": "1695.7 ± 1.3", "unit": "m/s"}, {"measurement": "speed of sound", "setting": "x1 = 0.2114", "value": "1695.7 ± 1.3", "unit": "m/s"}, {"measurement": "speed of sound", "setting": "x1 = 0.2217", "value": "1695.6 ± 1.3", "unit": "m/s"}, {"measurement": "speed of sound", "setting": "x1 = 0.2315", "value": "1695.4 ± 1.3", "unit": "m/s"}, {"measurement": "speed of sound", "setting": "x1 = 0.2384", "value": "1695.2 ± 1.3", "unit": "m/s"}, {"measurement": "speed of sound", "setting": "x1 = 0.246", "value": "1695 ± 1.3", "unit": "m/s"}, {"measurement": "speed of sound", "setting": "x1 = 0.2552", "value": "1694.6 ± 1.4", "unit": "m/s"}, {"measurement": "speed of sound", "setting": "x1 = 0.2648", "value": "1694.1 ± 1.4", "unit": "m/s"}, {"measurement": "speed of sound", "setting": "x1 = 0.2739", "value": "1693.7 ± 1.4", "unit": "m/s"}, {"measurement": "speed of sound", "setting": "x1 = 0.2857", "value": "1693 ± 1.4", "unit": "m/s"}, {"measurement": "speed of sound", "setting": "x1 = 0.2983", "value": "1692.1 ± 1.4", "unit": "m/s"}, {"measurement": "speed of sound", "setting": "x1 = 0.3133", "value": "1691.1 ± 1.4", "unit": "m/s"}, {"measurement": "speed of sound", "setting": "x1 = 0.3287", "value": "1689.9 ± 1.4", "unit": "m/s"}, {"measurement": "speed of sound", "setting": "x1 = 0.3552", "value": "1687.7 ± 1.4", "unit": "m/s"}, {"measurement": "speed of sound", "setting": "x1 = 0.3729", "value": "1686.1 ± 1.5", "unit": "m/s"}, {"measurement": "speed of sound", "setting": "x1 = 0.4002", "value": "1683.5 ± 1.5", "unit": "m/s"}, {"measurement": "speed of sound", "setting": "x1 = 0.4241", "value": "1681 ± 1.5", "unit": "m/s"}, {"measurement": "speed of sound", "setting": "x1 = 0.4527", "value": "1677.7 ± 1.6", "unit": "m/s"}, {"measurement": "speed of sound", "setting": "x1 = 0.478", "value": "1674.7 ± 1.6", "unit": "m/s"}, {"measurement": "speed of sound", "setting": "x1 = 0.5024", "value": "1671.6 ± 1.6", "unit": "m/s"}, {"measurement": "speed of sound", "setting": "x1 = 0.5266", "value": "1668.4 ± 1.6", "unit": "m/s"}, {"measurement": "speed of sound", "setting": "x1 = 0.5491", "value": "1665.3 ± 1.7", "unit": "m/s"}, {"measurement": "speed of sound", "setting": "x1 = 0.5701", "value": "1662.4 ± 1.7", "unit": "m/s"}, {"measurement": "speed of sound", "setting": "x1 = 0.5912", "value": "1659.4 ± 1.7", "unit": "m/s"}, {"measurement": "speed of sound", "setting": "x1 = 0.6123", "value": "1656.4 ± 1.8", "unit": "m/s"}, {"measurement": "speed of sound", "setting": "x1 = 0.631", "value": "1653.7 ± 1.8", "unit": "m/s"}, {"measurement": "speed of sound", "setting": "x1 = 0.656", "value": "1650.2 ± 1.8", "unit": "m/s"}, {"measurement": "speed of sound", "setting": "x1 = 0.6746", "value": "1647.5 ± 1.8", "unit": "m/s"}, {"measurement": "speed of sound", "setting": "x1 = 0.6953", "value": "1644.6 ± 1.9", "unit": "m/s"}, {"measurement": "speed of sound", "setting": "x1 = 0.7147", "value": "1641.9 ± 1.9", "unit": "m/s"}, {"measurement": "speed of sound", "setting": "x1 = 0.7344", "value": "1639.1 ± 1.9", "unit": "m/s"}, {"measurement": "speed of sound", "setting": "x1 = 0.7546", "value": "1636.4 ± 1.9", "unit": "m/s"}, {"measurement": "speed of sound", "setting": "x1 = 0.7797", "value": "1633 ± 2", "unit": "m/s"}, {"measurement": "speed of sound", "setting": "x1 = 0.8014", "value": "1630.2 ± 2", "unit": "m/s"}, {"measurement": "speed of sound", "setting": "x1 = 0.8265", "value": "1627 ± 2", "unit": "m/s"}, {"measurement": "speed of sound", "setting": "x1 = 0.8497", "value": "1624.1 ± 2.1", "unit": "m/s"}, {"measurement": "speed of sound", "setting": "x1 = 0.8696", "value": "1621.6 ± 2.1", "unit": "m/s"}, {"measurement": "speed of sound", "setting": "x1 = 0.9029", "value": "1617.5 ± 2.2", "unit": "m/s"}, {"measurement": "speed of sound", "setting": "x1 = 0.9198", "value": "1615.4 ± 2.2", "unit": "m/s"}, {"measurement": "speed of sound", "setting": "x1 = 0.9259", "value": "1614.7 ± 2.2", "unit": "m/s"}, {"measurement": "speed of sound", "setting": "x1 = 0.9367", "value": "1613.3 ± 2.2", "unit": "m/s"}, {"measurement": "speed of sound", "setting": "x1 = 0.9484", "value": "1611.8 ± 2.2", "unit": "m/s"}, {"measurement": "speed of sound", "setting": "x1 = 0.9601", "value": "1610.3 ± 2.2", "unit": "m/s"}, {"measurement": "speed of sound", "setting": "x1 = 0.97", "value": "1609.1 ± 2.3", "unit": "m/s"}, {"measurement": "speed of sound", "setting": "x1 = 0.9804", "value": "1607.7 ± 2.3", "unit": "m/s"}, {"measurement": "speed of sound", "setting": "x1 = 0.9884", "value": "1606.6 ± 2.3", "unit": "m/s"}, {"measurement": "speed of sound", "setting": "x1 = 0.9943", "value": "1605.8 ± 2.3", "unit": "m/s"}, {"measurement": "speed of sound", "setting": "x1 = 1", "value": "1605 ± 2.3", "unit": "m/s"}, {"measurement": "mass density", "setting": "x1 = 0.005", "value": "997.92 ± 0.53", "unit": "kg/m3"}, {"measurement": "mass density", "setting": "x1 = 0.0101", "value": "997.99 ± 1", "unit": "kg/m3"}, {"measurement": "mass density", "setting": "x1 = 0.0196", "value": "998.58 ± 1", "unit": "kg/m3"}, {"measurement": "mass density", "setting": "x1 = 0.0251", "value": "999.15 ± 1", "unit": "kg/m3"}, {"measurement": "mass density", "setting": "x1 = 0.0304", "value": "999.8 ± 1", "unit": "kg/m3"}, {"measurement": "mass density", "setting": "x1 = 0.05", "value": "1001.74 ± 1", "unit": "kg/m3"}, {"measurement": "mass density", "setting": "x1 = 0.0769", "value": "1003.5 ± 1.1", "unit": "kg/m3"}, {"measurement": "mass density", "setting": "x1 = 0.1002", "value": "1004.72 ± 1.1", "unit": "kg/m3"}, {"measurement": "mass density", "setting": "x1 = 0.1438", "value": "1005.61 ± 1.1", "unit": "kg/m3"}, {"measurement": "mass density", "setting": "x1 = 0.1845", "value": "1005.62 ± 1.1", "unit": "kg/m3"}, {"measurement": "mass density", "setting": "x1 = 0.2503", "value": "1004.77 ± 1.2", "unit": "kg/m3"}, {"measurement": "mass density", "setting": "x1 = 0.3", "value": "1003.78 ± 1.2", "unit": "kg/m3"}, {"measurement": "mass density", "setting": "x1 = 0.3343", "value": "1003.14 ± 1.3", "unit": "kg/m3"}, {"measurement": "mass density", "setting": "x1 = 0.4171", "value": "1001.32 ± 1.4", "unit": "kg/m3"}, {"measurement": "mass density", "setting": "x1 = 0.454", "value": "1000.44 ± 1.4", "unit": "kg/m3"}]}]}
